Where a SMILES comes first, the peptide text is derived from it.
Assays:
[1] = biological target: T1, Aminopeptidase N from porcine kidney (Sus scrofa, UniProt P15145); assay: Inhibitory activity of SEDDS and excipients towards isolated aminopeptidase N; type: biochemical; details: excipient (caprylic acid 20 µL or citronellol 10 µL) solubilized with 20 µL PEG-35 castor oil in HBS pH 6.5, 500 µL; 500 µL of 41.6 mU/mL enzyme; 5 mM L-Leucine-4-nitroanilide; 1 h, 37 °C, 400 rpm; n ≥ 3
T1 construct: purchased Merck KGaA (Darmstadt, Germany); host or cells: porcine kidney (tissue-derived enzyme suspension)
T1 sequence (P15145 1-963): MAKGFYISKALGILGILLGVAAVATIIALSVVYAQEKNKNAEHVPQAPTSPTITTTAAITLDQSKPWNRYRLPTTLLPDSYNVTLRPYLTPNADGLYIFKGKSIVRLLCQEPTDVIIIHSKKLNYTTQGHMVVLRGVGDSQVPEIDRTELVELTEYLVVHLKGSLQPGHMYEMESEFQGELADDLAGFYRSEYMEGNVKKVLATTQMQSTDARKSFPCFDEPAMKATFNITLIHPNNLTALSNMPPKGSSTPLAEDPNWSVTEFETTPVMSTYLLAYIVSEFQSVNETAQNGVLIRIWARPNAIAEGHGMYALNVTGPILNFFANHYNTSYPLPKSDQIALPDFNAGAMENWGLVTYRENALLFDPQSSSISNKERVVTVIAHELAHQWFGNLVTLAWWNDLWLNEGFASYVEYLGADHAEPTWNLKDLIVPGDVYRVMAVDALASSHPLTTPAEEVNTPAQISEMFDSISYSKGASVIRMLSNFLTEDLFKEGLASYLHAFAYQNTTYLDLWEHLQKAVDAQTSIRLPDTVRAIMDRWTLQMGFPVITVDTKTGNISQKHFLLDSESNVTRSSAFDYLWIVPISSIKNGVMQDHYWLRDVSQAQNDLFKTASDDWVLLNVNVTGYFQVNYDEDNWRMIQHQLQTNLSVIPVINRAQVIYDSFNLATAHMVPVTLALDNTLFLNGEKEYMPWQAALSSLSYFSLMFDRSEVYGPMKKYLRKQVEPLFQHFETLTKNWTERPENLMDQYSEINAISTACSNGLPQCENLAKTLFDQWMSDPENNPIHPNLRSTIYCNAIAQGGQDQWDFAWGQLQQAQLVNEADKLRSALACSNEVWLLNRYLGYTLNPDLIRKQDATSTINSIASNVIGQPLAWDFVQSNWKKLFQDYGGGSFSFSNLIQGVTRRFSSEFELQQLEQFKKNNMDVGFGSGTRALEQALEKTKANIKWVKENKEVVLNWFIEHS
Experimental: Furthermore, a possible inhibitory effect of SEDDS and excipients on aminopeptidase N activity was investigated using the isolated enzyme, following a method previously described with slight modifications [28]. Surfactant solutions were prepared in 20 mM HBS pH 6.5 in the same concentration as they are present in SEDDS. Either 5% (v/v) SEDDS or surfactant solution were mixed in 500 µL together with further 500 µL of a 41.6 mU/mL enzyme solution in 20 mM HBS pH 6.5. L-Leucine- 4-nitroanilide was added prior to SEDDS and surfactant solution in a final concentration of 5 mM.
A 5 mM substrate solution served as the positive control, representing 100% enzyme activity. The samples were incubated on a thermomixer for 1 h at 37 °C and 400 rpm agitation. To stop the enzymatic reaction, 1 mL of methanol containing 2% (v/v) TFA were added to each sample. After centrifugation at 12,500 rpm, the concentration of 4-nitroaniline in the supernatant was quantified. The inhibitory activity was calculated using the following Eq. (5):5 Inhibitoryactivity[%]=100-Abssample/Abspositivecontrol×100

[2] = pH 6.5
Experimental: The rat intestine was carefully cleaned to remove its intestinal contents and then cut into 1.5 cm sections. These sections were fixed in Ussing chambers with a surface area of 0.64 cm^2 and 1 mL of 20 mM HBS pH 6.5 was added to each acceptor chamber, while the donor chambers were filled with 1 mL of 5% (v/v) SEDDS in 20 mM HBS pH 6.5, facing the luminal side of the intestine.
The Ussing chambers were incubated in a water bath at 37 °C, and every 1 h, 100 µL aliquots were withdrawn from the acceptor chambers over a 4 h period. Withdrawn samples were replaced with pre-warmed HBS to maintain sink conditions. The concentration of permeated tuftsin in the collected aliquots was determined via HPLC and the apparent permeability coefficient [30]was subsequently calculated using the following Eq. (6):6 Papp[cms^-1]=Q[μg]/Acm^2cμgmL^-1t[s] where Papp is the apparent permeability coefficient, Q is the total amount of test substance permeated through the mucosa, A is the diffusion area of the Ussing chamber system, c is the initial concentration of tuftsin in the donor compartment and t is the total time of experiment.

[3] = biological target: T2, membrane-bound aminopeptidase N on rat intestinal mucosa (Rattus norvegicus, UniProt P15684)
T2 sequence (P15684 1-965): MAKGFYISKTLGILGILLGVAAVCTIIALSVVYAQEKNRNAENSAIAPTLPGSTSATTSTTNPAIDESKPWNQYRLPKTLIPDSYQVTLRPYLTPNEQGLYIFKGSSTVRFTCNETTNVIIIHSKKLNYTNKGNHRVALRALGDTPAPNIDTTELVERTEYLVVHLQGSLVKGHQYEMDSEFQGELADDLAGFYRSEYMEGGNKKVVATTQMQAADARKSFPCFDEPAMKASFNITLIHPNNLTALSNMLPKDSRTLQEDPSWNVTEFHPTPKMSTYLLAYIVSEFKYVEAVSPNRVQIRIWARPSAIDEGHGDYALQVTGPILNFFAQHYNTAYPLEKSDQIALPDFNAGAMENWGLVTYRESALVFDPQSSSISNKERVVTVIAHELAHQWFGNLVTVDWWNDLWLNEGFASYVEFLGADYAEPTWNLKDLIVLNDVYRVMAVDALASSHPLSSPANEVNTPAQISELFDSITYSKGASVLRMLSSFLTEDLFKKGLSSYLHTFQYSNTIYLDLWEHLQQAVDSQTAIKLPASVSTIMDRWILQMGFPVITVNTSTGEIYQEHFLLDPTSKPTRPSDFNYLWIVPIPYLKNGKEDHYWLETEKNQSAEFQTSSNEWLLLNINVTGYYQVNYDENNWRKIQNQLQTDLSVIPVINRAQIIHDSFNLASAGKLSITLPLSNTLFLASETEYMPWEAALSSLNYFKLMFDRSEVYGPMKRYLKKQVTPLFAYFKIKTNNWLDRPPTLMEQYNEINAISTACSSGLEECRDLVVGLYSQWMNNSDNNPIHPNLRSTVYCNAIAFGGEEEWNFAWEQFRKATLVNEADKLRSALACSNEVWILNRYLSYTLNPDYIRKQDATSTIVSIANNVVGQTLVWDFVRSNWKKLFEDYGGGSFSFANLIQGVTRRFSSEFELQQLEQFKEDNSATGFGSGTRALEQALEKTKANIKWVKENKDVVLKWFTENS
Experimental: Rat intestine was obtained freshly from male Sprague–Dawley rats (200–300 g) supplied by Janvier Labs (Saint Berthevin, France). The middle section of the small intestine was longitudinally dissected and thoroughly washed with HBS pH 6.5 to remove intestinal contents. The intestine was stored at − 20 °C in HBS until further use.
After thawing the small intestine was cut into 1 × 1 cm pieces that were placed in tubes containing 500 µL of HBS. SEDDS with dissolved HIP were emulsified in a concentration of 10% (v/v) in HBS. 500 µL of nanoemulsions were added to each tube to obtain a final concentration of 5% (v/v) SEDDS. Thereafter, samples were incubated on a thermomixer at 37 °C with continuous agitation at 400 rpm. Over a 4 h time period, 100 µL aliquots were withdrawn from each sample at predefined time intervals. To terminate the enzymatic reaction, an equal volume of methanol containing 2% (v/v) TFA was added to each aliquot. Subsequently, the concentration of tuftsin in the supernatant was quantified using HPLC.

CC(C)=CCCC(C)CCO (stereo not shown) [citronellol]
Inhibitory activity of single SEDDS-3 excipients towards aminopeptidase N [1]: 18%

C[C@@H](O)[C@H](N)C(=O)N[C@@H](CCCCN)C(=O)N1CCC[C@H]1C(=O)N[C@@H](CCCNC(=N)N)C(=O)O [tuftsin, Tuftsin] (H-TKPR-OH)
Apparent permeability coefficient (Papp) of tuftsin [2]: 0.8 × 10^–5 cm/s
Tuftsin permeated after 4 h of cumulative permeation (% of initial tuftsin) [2]: 7%
Time to entire degradation of the unformulated peptide (abstract) [3]: ≤ 20 min

— publication PMC13294191, “Oral peptide drug delivery: design of SEDDS providing a protective effect against intestinal membrane-bound enzymes” (Drug Delivery and Translational Research, 2025)
